The text below walks through data of article PMC10535710, “Beauvericin suppresses the proliferation and pulmonary metastasis of osteosarcoma by selectively inhibiting TGFBR2 pathway” (International Journal of Biological Sciences, 2023).

Each structure is given as a SMILES string.

One may read the IC50 as the point on the concentration scale where inhibition reaches its midpoint.

One test addresses T1, TGFBR2 (Homo sapiens, UniProt P37173).
T1 construct: MST used recombinant human TGFBR2 ECD
T1 sequence (P37173 188-567 limits assumed): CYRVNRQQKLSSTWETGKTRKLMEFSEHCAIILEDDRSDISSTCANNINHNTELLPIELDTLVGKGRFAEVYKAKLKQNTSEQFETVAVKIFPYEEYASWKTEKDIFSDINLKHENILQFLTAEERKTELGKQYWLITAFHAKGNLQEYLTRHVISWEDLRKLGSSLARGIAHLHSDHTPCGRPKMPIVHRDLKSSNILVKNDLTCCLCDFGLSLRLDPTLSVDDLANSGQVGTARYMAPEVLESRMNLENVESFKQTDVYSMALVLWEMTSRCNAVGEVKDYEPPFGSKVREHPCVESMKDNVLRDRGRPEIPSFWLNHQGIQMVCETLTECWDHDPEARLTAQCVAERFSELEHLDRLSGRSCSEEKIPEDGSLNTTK
Put plainly: TR-FRET LanthaScreen Eu Kinase Binding Assay (tracer […]; reported as kinase activity inhibition); supported by MST, DARTS on recombinant protein, CETSA. On the technique in general: TR-FRET usually uses a lanthanide donor and a delayed reading to cut background.

In another test the target is T2, TGFBR2 K252R (Homo sapiens, UniProt P37173, K252R).
T2 construct: TGFBR2 K252R overexpression plasmid transfected into OS cells
Put plainly: DARTS (protection from pronase) in OS cells expressing the mutant. It counts as cell-based.

T2 sequence (P37173 23-567 K252R): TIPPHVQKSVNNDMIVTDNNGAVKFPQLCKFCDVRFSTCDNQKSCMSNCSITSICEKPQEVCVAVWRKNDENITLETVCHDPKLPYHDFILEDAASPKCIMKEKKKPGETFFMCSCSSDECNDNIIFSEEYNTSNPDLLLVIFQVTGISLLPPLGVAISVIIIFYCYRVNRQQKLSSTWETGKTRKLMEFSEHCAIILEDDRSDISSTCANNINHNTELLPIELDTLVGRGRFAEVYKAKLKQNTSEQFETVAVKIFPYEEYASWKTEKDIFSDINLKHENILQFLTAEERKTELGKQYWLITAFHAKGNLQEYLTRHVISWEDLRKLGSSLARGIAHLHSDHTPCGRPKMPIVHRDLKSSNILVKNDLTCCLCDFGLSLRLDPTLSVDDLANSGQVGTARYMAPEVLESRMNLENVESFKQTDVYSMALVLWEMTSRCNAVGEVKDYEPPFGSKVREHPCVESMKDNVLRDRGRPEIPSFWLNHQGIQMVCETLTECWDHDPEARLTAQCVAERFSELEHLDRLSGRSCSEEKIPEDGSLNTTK

For `CC(C)[C@H]1OC(=O)[C@H](Cc2ccccc2)N(C)C(=O)[C@@H](C(C)C)OC(=O)[C@H](Cc2ccccc2)N(C)C(=O)[C@@H](C(C)C)OC(=O)[C@H](Cc2ccccc2)N(C)C1=O` [BEA, beauvericin], the IC50 on TGFBR2 was found to be 1360 ± 210 nM. On TGFBR2 K252R, the “DARTS (protection from pronase) in OS cells expressing the mutant” value is reported as “BEA suppressed the pronase-induced degradation of TGFBR2^K252R (Figure S7A-B), indicating that BEA may bind to TGFBR2 at N332”.
